Measurements taken from US9957264B2 (Merck Sharp & Dohme Corp., priority 2013, dated 2018).

Legend:
[1] = target: JAK2 (recombinant purified GST-tagged catalytic domain) (Homo sapiens (Human), UniProt O60674); test: Jak Biochemical HTRF Assay (JAK2); settings: [ATP] 8.5 μM
[2] = target: JAK1 (recombinant purified GST-tagged catalytic domain) (Homo sapiens (Human), UniProt P23458); test: Jak Biochemical HTRF Assay (JAK1); settings: [ATP] 31.8 μM
Summary of the method: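 Kinase reaction with biotinylated peptide substrate was started by ATP addition and run 120 min at room temperature, then quenched with EDTA stop buffer containing streptavidin-Dylight 650 and Eu-pY20 antibody. HTRF read 60 min later (665/615 nm ratio); percent inhibition vs log concentration fit to 4-parameter curve for IC50.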

Chain of JAK1 (recombinant purified GST-tagged catalytic domain) (P23458 875-1153): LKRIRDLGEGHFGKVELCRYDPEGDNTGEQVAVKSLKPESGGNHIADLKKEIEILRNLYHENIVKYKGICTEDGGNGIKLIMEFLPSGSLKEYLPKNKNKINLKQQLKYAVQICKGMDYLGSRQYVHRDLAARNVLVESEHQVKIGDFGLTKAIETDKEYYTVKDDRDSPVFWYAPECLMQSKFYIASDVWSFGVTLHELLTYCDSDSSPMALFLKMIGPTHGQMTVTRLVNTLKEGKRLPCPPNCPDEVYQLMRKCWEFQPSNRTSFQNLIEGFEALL
Chain of JAK2 (recombinant purified GST-tagged catalytic domain) (O60674 849-1124): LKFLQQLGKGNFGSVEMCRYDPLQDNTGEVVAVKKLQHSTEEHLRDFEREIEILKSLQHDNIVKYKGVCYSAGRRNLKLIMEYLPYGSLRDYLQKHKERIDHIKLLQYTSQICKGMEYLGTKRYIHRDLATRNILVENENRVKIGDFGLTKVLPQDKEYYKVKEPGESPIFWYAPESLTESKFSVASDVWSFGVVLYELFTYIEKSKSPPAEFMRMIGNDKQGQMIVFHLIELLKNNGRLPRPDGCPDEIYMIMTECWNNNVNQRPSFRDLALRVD

SMILES | IC50 [1] [nM] | IC50 [2] [nM]
N#CCC1(n2nc(Nc3ccc(F)cc3)c3c(=O)[nH]ccc32)CCN(C(=O)C2CC2)CC1 [Example 7, [1-(cyclopropylcarbonyl)-4-{3-[(4-fluorophenyl)amino]-4-oxo-4,5-dihydro-1H-pyrazolo[4,3-c]pyridin-1-yl}piperidin-4-yl]acetonitrile] | 1.9 | 0.09
CN(C)S(=O)(=O)c1ccc(Nc2nn(C3(CC#N)CCN(Cc4ccccc4)CC3)c3cc[nH]c(=O)c23)cc1 [Example 8-1, 4-({1-[1-benzyl-4-(cyanomethyl)piperidin-4-yl]-4-oxo-4,5-dihydro-1H-pyrazolo[4,3-c]pyridin-3-yl}amino)-N,N-dimethylbenzenesulfonamide] | 0.38 | 0.17
CN(C)S(=O)(=O)c1ccc(Nc2nn(C3(CC#N)CCN(Cc4ccc(C(F)(F)F)cc4)CC3)c3cc[nH]c(=O)c23)cc1 [Example 8-3, 4-[(1-{4-(cyanomethyl)-1-[4-(trifluoromethyl)benzyl]piperidin-4-yl}-4-oxo-4,5-dihydro-1H-pyrazolo[4,3-c]pyridin-3-yl)amino]-N,N-dimethylbenzenesulfonamide] | 8.62 | 2.32
CC(C)c1ccc(CN2CCC(CC#N)(n3nc(Nc4ccc(S(=O)(=O)N(C)C)cc4)c4c(=O)[nH]ccc43)CC2)cc1 [Example 8-4, 4-[(1-{4-(cyanomethyl)-1[4-(1-methylethyl)benzyl]piperidin-4-yl}-4-oxo-4,5-dihydro-1H-pyrazolo[4,3-c]pyridin-3-yl)amino]-N,N-dimethylbenzenesulfonamide] | 33.1 | 6.9
CC(C)Oc1ccc(CN2CCC(CC#N)(n3nc(Nc4ccc(S(=O)(=O)N(C)C)cc4)c4c(=O)[nH]ccc43)CC2)cc1 [Example 8-6, 4-[(1-{4-(cyanomethyl)-1-[4-(1methylethoxy)benzyl]piperidin-4-yl}-4-oxo-4,5-dihydro-1H-pyrazolo[4,3-c]pyridin-3-yl)amino]-N,N-dimethylbenzenesulfonamide] | 12.4 | 1.94
CN(C)S(=O)(=O)c1ccc(Nc2nn(C3(CC#N)CCN(Cc4ccc(F)cc4)CC3)c3cc[nH]c(=O)c23)cc1 [Example 8-7, 4-({1-[4-(cyanomethyl)-1-(4-fluorobenzyl)piperidin-4-yl]-4-oxo-4,5-dihydro-1H-pyrazolo[4,3-c]pyridin-3-yl}amino)-N,N-dimethylbenzenesulfonamide] | 0.63 | 0.21
CN(C)S(=O)(=O)c1ccc(Nc2nn(C3(CC#N)CCN(Cc4cccc(F)c4)CC3)c3cc[nH]c(=O)c23)cc1 [Example 8-8, 4-({1-[4-(cyanomethyl)-1-(3-fluorobenzyl)piperidin-4-yl]-4-oxo-4,5-dihydro-1H-pyrazolo[4,3-c]pyridin-3-yl}amino)-N,N-dimethylbenzenesulfonamide] | 0.52 | 0.29
CN(C)S(=O)(=O)c1ccc(Nc2nn(C3(CC#N)CCN(Cc4ccccc4F)CC3)c3cc[nH]c(=O)c23)cc1 [Example 8-9, 4-({1-[4-(cyanomethyl)-1-(2-fluorobenzyl)piperidin-4-yl]-4-oxo-4,5-dihydro-1H-pyrazolo[4,3-c]pyridin-3-yl}amino)-N,N-dimethylbenzenesulfonamide] | 0.28 | 0.19
CN(C)S(=O)(=O)c1ccc(Nc2nn(C3(CC#N)CCN(Cc4c(F)cccc4F)CC3)c3cc[nH]c(=O)c23)cc1 [Example 8-10, 4-({1-[4-(cyanomethyl)-1-(2,6-difluorobenzyl)piperidin-4-yl]-4-oxo-4,5-dihydro-1H-pyrazolo[4,3-c]pyridin-3-yl}amino)-N,N-dimethylbenzenesulfonamide] | 0.29 | 0.19
CN(C)S(=O)(=O)c1ccc(Nc2nn(C3(CC#N)CCN(Cc4c(F)ccc(F)c4F)CC3)c3cc[nH]c(=O)c23)cc1 [Example 8-11, 4-({1-[4-(cyanomethyl)-1-(2,3,6-trifluorobenzyl)piperidin-4-yl]-4-oxo-4,5-dihydro-1H-pyrazolo[4,3-c]pyridin-3-yl}amino)-N,N-dimethylbenzenesulfonamide] | 0.28 | 0.24
CN(C)S(=O)(=O)c1ccc(Nc2nn(C3(CC#N)CCN(Cc4ncco4)CC3)c3cc[nH]c(=O)c23)cc1 [Example 8-12, 4-({1-[4-(cyanomethyl)-1-(1,3-oxazol-2-ylmethyl)piperidin-4-yl]-4-oxo-4,5-dihydro-1H-pyrazolo[4,3-c]pyridin-3-yl}amino)-N,N-dimethylbenzenesulfonamide] | 0.99 | 0.26
CN(C)S(=O)(=O)c1ccc(Nc2nn(C3(CC#N)CCN(Cc4ccc(-c5ccon5)cc4)CC3)c3cc[nH]c(=O)c23)cc1 [Example 8-13, 4-({1-[4-(cyanomethyl)-1-(4-isoxazol-3-ylbenzyl)piperidin-4-yl]-4-oxo-4,5-dihydro-1H-pyrazolo[4,3-c]pyridin-3-yl}amino)-N,N-dimethylbenzenesulfonamide] | 0.75 | 0.31
CN(C)S(=O)(=O)c1ccc(Nc2nn(C3(CC#N)CCN(Cc4ccc(N5CCCC5=O)cc4)CC3)c3cc[nH]c(=O)c23)cc1 [Example 8-14, 4-[(1-{4-(cyanomethyl)-1-[4-(2-oxopyrrolidin-1-yl)benzyl]piperidin-4-yl}-4-oxo-4,5-dihydro-1H-pyrazolo[4,3-c]pyridin-3-yl)amino]-N,N-dimethylbenzenesulfonamide] | 2.84 | 0.73
CN(C)S(=O)(=O)c1ccc(Nc2nn(C3(CC#N)CCN(CCCc4ccccc4)CC3)c3cc[nH]c(=O)c23)cc1 [Example 8-15, 4-({1-[4-(cyanomethyl)-1-(3-phenylpropyl)piperidin-4-yl]-4-oxo-4,5-dihydro-1H-pyrazolo[4,3-c]pyridin-3-yl}amino)-N,N-dimethylbenzenesulfonamide] | 2.84 | 0.53
CC(c1c(F)cccc1F)N1CCC(CC#N)(n2nc(Nc3ccc(S(=O)(=O)N(C)C)cc3)c3c(=O)[nH]ccc32)CC1 (stereo not drawn) [Example 8-17, 4-((1-(4-(cyanomethyl)-1-(1-(2,6-difluorophenyl)ethyl)piperidin-4-yl)-4-oxo-4,5-dihydro-1H-pyrazolo[4,3-c]pyridin-3-yl)amino)-N,N-dimethylbenzenesulfonamide] | 3.26 | 1.4
CN(C)S(=O)(=O)c1ccc(Nc2nn(C3(CC#N)CCN(CCc4ccccc4)CC3)c3cc[nH]c(=O)c23)cc1 [Example 8-18, 4-((1-(4-(cyanomethyl)-1-phenethylpiperidin-4-yl)-4-oxo-4,5-dihydro-1H-pyrazolo[4,3-c]pyridin-3-yl)amino)-N,N-dimethylbenzenesulfonamide] | 14 | 3.16
CN(C)S(=O)(=O)c1cccc(Nc2nn(C3(CC#N)CCN(Cc4cccnc4)CC3)c3cc[nH]c(=O)c23)c1 [Example 8-19, 3-({1-[4-(cyanomethyl)-1-(pyridin-3-ylmethyl)piperidin-4-yl]-4-oxo-4,5-dihydro-1H-pyrazolo[4,3-c]pyridin-3-yl}amino)-N,N-dimethylbenzenesulfonamide] | 1.98 | 1.19
CN(C)S(=O)(=O)c1ccc(Nc2nn(C3(CC#N)CCN(C(=O)CC(F)(F)F)CC3)c3cc[nH]c(=O)c23)cc1 [Example 9-2, 4-({1-[4-(cyanomethyl)-1-(3,3,3-trifluoropropanoyl)piperidin-4-yl]-4-oxo-4,5-dihydro-1H-pyrazolo[4,3-c]pyridin-3-yl}amino)-N,N-dimethylbenzenesulfonamide] | 0.31 | 0.08
